Laboratory results published in PubChem BioAssay AID1259407 (Chemical Carcinogenesis Research Information System (CCRIS), 2018).
The source made the active and inactive calls. The rule behind the calls is not given here.

System: CCRIS mutagenicity, Ames/micronucleus/aberration tests
Experiment: CCRIS mutagenicity studies
Conditions: Test System: AMES SALMONELLA TYPHIMURIUM, Method: PREINCUBATION

Measured: mutagenic call

CC(CO)[N+](=O)[O-] (stereo unspecified)
inactive: Strain/Indicator: TA98, Metabolic Activation: NONE inactive; negative | Strain/Indicator: TA98, Metabolic Activation: RAT, LIVER, S-9, AROCLOR inactive; negative | Strain/Indicator: TA100, Metabolic Activation: NONE inactive; negative | Strain/Indicator: TA100, Metabolic Activation: RAT, LIVER, S-9, AROCLOR inactive; negative | Strain/Indicator: TA102, Metabolic Activation: NONE inactive; negative | Strain/Indicator: TA102, Metabolic Activation: RAT, LIVER, S-9, AROCLOR inactive; negative
